Among the test systems are COLO 205 colon; DLD-1 colon; HT29 colon; IGROV1 ovarian; K-562 leukemia; KM20L2 colon; LOX IMVI melanoma; LXFL 529 NSCLC; SF-539 CNS; SNB-78 CNS; NCI-H226 lung.
Assay in all cases: NCI anticancer screen, dose series, 48 h

Each structure is given as a SMILES string.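 These data come from cells grown in 96-well plates and exposed to compound for 48 hours at five concentrations. The concentration for full growth arrest is given as TGI.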

As to `O=C1CCCC/C1=C\c1ccc(Cl)c(Cl)c1`, the TGI came to 96.6 µM in the assay on COLO 205 colon; 61.6 µM with DLD-1 colon; 55.1 µM with HT29 colon; 61.7 µM with IGROV1 ovarian; 48 µM with K-562 leukemia; 40.9 µM in the assay on KM20L2 colon. For the same compound, the TGI in the assay on LOX IMVI melanoma was 34.7 µM; in the assay with LXFL 529 NSCLC, 31.2 µM; with SF-539 CNS, 32.5 µM; in the assay with SNB-78 CNS, 52.7 µM.

For `O=C1c2ccccc2N2OC3(N4CCCC4)CCCCC3C12c1ccccc1` (stereo not given), the TGI in the assay on COLO 205 colon is 31 µM; with DLD-1 colon, 46.3 µM; with HT29 colon, 52.6 µM; in the assay with IGROV1 ovarian, more than 100 µM; in the assay on K-562 leukemia, 59.8 µM; with KM20L2 colon, more than 100 µM. The TGI was 27.7 µM in the assay with LXFL 529 NSCLC, more than 100 µM in the assay with NCI-H226 lung, 80.5 µM with SF-539 CNS and 33.9 µM in the assay on SNB-78 CNS.

With `CCCCCCCCCCCC[N+](CCCCCCCCCCCC)=C1SCCS1`, the TGI in the assay with COLO 205 colon was determined as 20.4 µM; in the assay on DLD-1 colon it was 21.2 µM; with HT29 colon, 12.8 µM; with IGROV1 ovarian, 23.4 µM; in the assay with KM20L2 colon, 18.4 µM; in the assay on LOX IMVI melanoma it was 4.52 µM. Besides, the TGI in the assay with LXFL 529 NSCLC was found to be 14 µM; in the assay on NCI-H226 lung it was 28.2 µM; with SF-539 CNS, 25.5 µM; in the assay with SNB-78 CNS it was 14.6 µM.

With `O=C1NC2CCCCCC2C12CCCCC2` (stereo not given), the TGI in the assay on DLD-1 colon, with HT29 colon, in the assay on IGROV1 ovarian, in the assay on K-562 leukemia, in the assay on KM20L2 colon and in the assay with LOX IMVI melanoma was more than 100 µM throughout. Besides, the TGI with LXFL 529 NSCLC, in the assay on NCI-H226 lung, in the assay on SF-539 CNS and in the assay with SNB-78 CNS was more than 100 µM in each case.

(Values after PubChem BioAssay (NCI).)
